Data published in PubChem BioAssay (NCI).
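Here, GI50 denotes the concentration required for 50% inhibition of growth. TGI marks complete inhibition of growth.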

Key:
Test in all cases: NCI tumour cell line growth inhibition, 384-well format
[1] = system: BT-549 breast
[2] = system: NCI-H322M lung
[3] = system: MDA-MB-435 melanoma
[4] = system: UACC-62 melanoma
[5] = system: HCT-15 colon
[6] = system: MCF7 breast
[7] = system: PC-3 prostate
[8] = system: HCC-2998 colon
[9] = system: SNB-19 CNS
[10] = system: RPMI-8226 leukemia
[11] = system: HOP-92 NSCLC
[12] = system: K-562 leukemia
[13] = system: LOX IMVI melanoma
[14] = system: A549 NSCLC
[15] = system: KM12 colon
[16] = system: TK-10 renal
[17] = system: HL-60(TB) leukemia
[18] = system: SK-MEL-28 melanoma
[19] = system: NCI-H23 lung
[20] = system: SF-539 CNS
[21] = system: SW-620 colon
[22] = system: CAKI-1 renal
[23] = system: NCI-H522 lung
[24] = system: SK-OV-3 ovarian
[25] = system: SK-MEL-5 melanoma
[26] = system: HOP-62 NSCLC
[27] = system: SF-268 CNS
[28] = system: T-47D breast
[29] = system: DU-145 prostate

For `COc1ccc(Br)cc1NC(=O)Nc1cccc2c1ccn2Cc1ccnc(N)c1`, the GI50 [1] was 9.64 µM, the TGI [1] was 21.5 µM and the GI50 [2] was 8.46 µM. It also gave a TGI [2] of 21.4 µM, a GI50 [3] of 10.9 µM and a TGI [3] of 23 µM. The GI50 [4] was 5.8 µM, the TGI [4] was 18.6 µM and the GI50 [5] was 2.02 µM. For the same molecule, the TGI [5] was 3.63 µM, the GI50 [6] was 5.26 µM and the TGI [6] was 18.3 µM. For the same molecule, the GI50 [7] was 6.67 µM, the TGI [7] was 18.9 µM and the GI50 [8] was 3.51 µM. For the same molecule, the TGI [8] was 8.43 µM, the GI50 [9] was 9.24 µM and the TGI [9] was 21.7 µM. For the same molecule, the GI50 [10] was 2.35 µM, the TGI [10] was 6.39 µM and the GI50 [11] was 5.73 µM. For the same molecule, the TGI [11] was 18.3 µM, the GI50 [12] was 1.47 µM and the TGI [12] was 2.81 µM. The GI50 [13] was 4.85 µM, the TGI [13] was 15.2 µM and the GI50 [14] was 7.56 µM. For the same molecule, the TGI [14] was 20.2 µM, the GI50 [15] was 2.54 µM and the TGI [15] was 5.81 µM. The GI50 [16] was 6.85 µM, the TGI [16] was 20 µM and the GI50 [17] was 1.87 µM. For the same molecule, the TGI [17] was 4.64 µM, the GI50 [18] was 11.5 µM and the TGI [18] was 23.7 µM. For the same molecule, the GI50 [19] was 9.53 µM, the TGI [19] was 21.6 µM and the GI50 [20] was 4.44 µM. The TGI [20] was 18 µM, the GI50 [21] was 12.4 µM and the TGI [21] was 25 µM. It also gave a GI50 [22] of 10.7 µM, a TGI [22] of 22.8 µM and a GI50 [23] of 3.51 µM. The TGI [23] was 10.6 µM, the GI50 [24] was 8.96 µM and the TGI [24] was 21.1 µM. It also gave a GI50 [25] of 4.55 µM, a TGI [25] of 15.4 µM and a GI50 [26] of 11.7 µM. The TGI [26] was 24.1 µM, the GI50 [27] was 9.97 µM and the TGI [27] was 21.9 µM. It also gave a GI50 [28] of 3.77 µM, a TGI [28] of 11.8 µM and a GI50 [29] of 12.9 µM. The TGI [29] was 27.9 µM.
